The numbers were not newly measured in US8993607B2, “Therapeutic compounds” (Rutgers, The State University of New Jersey, priority 2007, dated 2015), which cites them from elsewhere.

For orientation: IC50 means the midpoint of a concentration-inhibition curve. In general, GI50 refers to the concentration giving 50% growth inhibition.

Data set [1] relates to natural bone marrow CD34-positive cells. Particulars: compared, Tauchi et al., 2003.
The subject of another data set is LANS. The settings on record: human neuroblastoma cell line LANS; Binz et al., 2005; read-out: cytotoxicity IC50.
In a further data set the test system is LAN1. The settings on record: human neuroblastoma cell line LAN1; Binz et al., 2005; read-out: cytotoxicity IC50.
In the next data set the test system is MiaPaCa. Particulars: human pancreatic carcinoma MiaPaCa; Liu et al., 2005; read-out: cytotoxicity IC50.
Another data set deals with SK-N-AS. The settings on record: human neuroblastoma cell line SK-N-AS; Binz et al., 2005; read-out: cytotoxicity IC50.
The test system of another data set is WAC2. Particulars: human neuroblastoma cell line WAC2; Binz et al., 2005; read-out: cytotoxicity IC50.
For a further data set, the target named is telomerase. The settings on record: read-out: telomerase inhibitory activity IC50.
The test system of a further data set is K62 leukemia cells. The settings on record: Tauchi et al., 2003.
The test system of data set [2] is human breast cancer cell lines HBC-4, BSY-1, HBC-5, MCF-7, and MDA-MB-231. Particulars: range over HBC-4, BSY-1, HBC-5, MCF-7, MDA-MB-231; Sohda et al., 2005.

Consider `Cc1oc2nc1-c1nc(co1)-c1nc(co1)-c1nc(co1)-c1nc(co1)-c1nc(co1)C1=NC(CS1)c1nc-2c(C)o1` (stereo not drawn) [telomestatin], for which the “effect on burst-forming units—erythrocyte (BFU-E) and colony-forming units—granulocyte/macrophage (CFU-GM)” value in data set [1] is “much lesser effect”. Further, the concentration for half-maximal inhibition (IC50) in the data set on LANS is 2500 nM; in the data set on LAN1, 4000 nM; in the data set on MiaPaCa, 500 nM; with SK-N-AS, 800 nM; in the data set with WAC2, 3200 nM; at telomerase it was 5 nM. Also, the plating efficiency entry with K62 leukemia cells is “suppress the plating efficiency”.
Regarding `CC[C@H](C)[C@@H]1NC(=O)c2nc(oc2-c2ccccc2)-c2csc(n2)-c2coc(n2)-c2coc(n2)-c2coc(n2)CNC(=O)[C@@H](C(C)C)NC1=O` [YM-216391], the concentration for 50% growth inhibition (GI50) in [2] was 15 to 33 nM.
